We go through 15 molecules from US20260176284A1, “Compounds with Anti-KRAS Mutated Tumor Activity” (Trasveda Ltd., priority 2022, published 2026).

The test system of one experiment is KRAS G12D mutated AGS human gastric adenocarcinoma cells. The experiment can be described thus: Proliferation inhibition of KRAS G12D mutant AGS cells, another experiment with similar protocol (includes MRTX1133). It counts as cell-based. The conditions noted are these: Homo sapiens. The protocol:
In another experiment, using a protocol similar to the one described above, the inhibitory activity of some representative compounds of the present invention against KRAS G12D mutated AGS human gastric adenocarcinoma cells was determined.
The synthesis of compound MRTX1133 was performed according to the method described in J. Med. Chem. 2022, 65, 4, 3123-3133.
As a reminder, the IC50 is the point on the concentration scale where inhibition reaches its midpoint. Read a low IC50 as greater potency in that assay. With `CN1CC/C(=C\F)[C@](C)(COc2nc(N3C[C@H]4CC[C@@H](C3)N4)c3cc(C(F)(F)F)c(-c4cccc5sc(N)c(C#N)c45)c(F)c3n2)C1` [Example 318, 4-(4-((1R,5S)-3,8-diazabicyclo[3.2.1]octan-3-yl)-8-fluoro-2-(((S,E)-4-(fluoromethylene)-1,3-dimethylpiperidin-3-yl)methoxy)-6-(trifluoromethyl)quinazolin-7-yl)-2-aminobenzo[b]thiophene-3-carbonitrile], half-maximal inhibition (IC50) was put at 0.028 µM.

`CN1CC/C(=C\F)[C@](C)(COc2nc(N3C[C@H]4CC[C@@H](C3)N4)c3cc(C(F)(F)F)c(-c4c(F)ccc5sc(N)c(C#N)c45)c(F)c3n2)C1` (single isomer, unassigned) [Example 362-1]: the half-maximal inhibitory concentration (IC50) was found to be 0.005 µM.

In turn, `C#Cc1c(F)ccc2cc(O)cc(-c3c(F)cc4c(N5C[C@H]6CC[C@@H](C5)N6)nc(OC[C@]5(C)CN(CC)CC/C5=C\F)nc4c3F)c12` [Example 79, 4-(4-((1R,5S)-3,8-diazabicyclo[3.2.1]octan-3-yl)-2-(((S,E)-1-ethyl-4-(fluoromethylene)-3-methylpiperidin-3-yl)methoxy)-6,8-difluoroquinazoline-7-yl)-5-ethynyl-6-fluoronaphthalene-2-ol] displayed a half-maximal inhibitory concentration (IC50) of 0.004 µM.

For the molecule `C#Cc1c(F)ccc2cc(O)cc(-c3c(F)cc4c(N5CC6CCC(C5)N6)nc(OC[C@]5(C)CN(C6CC6)CCC5(F)F)nc4c3F)c12` (atropisomer, axis not shown; (Ra)) [Example 49, (Ra)-4-(4-((1R,5S)-3,8-diazabicyclo[3.2.1]octan-3-yl)-2-(((S)-1-cycloprop-yl-4,4-difluoro-3-methylpiperi-din-3-yl)methoxy)-6,8-difluoroquinazolin-7-yl)-5-ethynyl-6-fluoronaph-thalen-2-ol], the midpoint of inhibition, the IC50, lay at 0.386 µM.

As for `C#Cc1c(F)ccc2cc(O)cc(-c3c(F)cc4c(N5CC6CCC(C5)N6)nc(OC[C@]5(C)CN(C)CCC5=C)nc4c3F)c12` (atropisomer, axis not shown; (Ra)) [Example 40, (Ra)-4-(4-((1R,5S)-3,8-diazabicyclo[3.2.1]octan-3-yl)-2-(((S)-1,3-dimethyl-4-methylenepiperidin-3-yl)methoxy)-6,8-difluoroquinazolin-7-yl)-5-ethynyl-6-fluoronaphthalen-2-ol], the IC50 stood at 0.009 µM.

In the case of `CN1CC[C@H](C(F)F)[C@](C)(COc2nc(N3C[C@H]4CC[C@@H](C3)N4)c3cc(C(F)(F)F)c(-c4c(F)ccc5sc(N)c(C#N)c45)c(F)c3n2)C1` (single isomer, unassigned) [Example 363-1], 0.004 µM corresponded to half-maximal inhibition (IC50).

Another experiment has the same test system. The experiment can be described thus: Proliferation inhibition of KRAS G12D mutant AGS cells (CellTiter-Glo, 3 days; IC50 and single-point inhibition rate at 1 μM). The conditions noted are these: 72 h, 3 days incubation, max concentration 10 μM. The experiment is classed as cell-based. On the procedure:
This experiment assessed and validated the proliferation inhibitory activity of some compounds of the present invention against KRAS G12D mutant AGS cells.
Incubate at 37° C., 5% CO2, 95% humidity.
The following materials, instruments, and reagents were used in this experiment: Fetal Bovine Serum FBS (GIBCO, Cat #10099-141); CellTiter-Glo® Luminescent Cell Viability Assay (Promega, Cat #G7572); 96-well clear flat-bottom black-wall plate (Corning®, Cat #3603); SpectraMax multimode microplate reader (MD, 2104-0010A); CO2 Incubator (Thermo Scientific, Model 3100 Series); Biosafety cabinet (Thermo Scientific, Model 1300 Series A2); Inverted microscope (Olympus, CKX41SF); AGS cell line was purchased from Nanjing Kebai Biotechnology Co., Ltd., under the lot number CBP60476.
Cell culture and inoculation: The cells in the logarithmic growth phase were harvested, and cell counting was performed using a platelet counter. The cell viability was detected by Trypan Blue exclusion method to ensure that the cell viability was above 90%. The cell concentration was adjusted. Then, 90 μL of the cell suspension was added to each well of a 96-well plate respectively, and the cells in the 96-well plate were cultured at 37° C. and 5% CO2.
Drug dilution and addition: a) For the preparation of drugs for single-point inhibition rate determination: A 10-fold concentrated drug solution was prepared. 10 μL of the drug solution was added to each well of the 96-well plate inoculated with cells to make the working concentration 1 μM, and three replicate wells were set for each drug concentration; b) For the preparation of drugs for IC50 determination: A 10-fold concentrated drug solution was prepared. 10 μL of the drug solution was added to each well of the 96-well plate inoculated with cells to make the maximum working concentration 10 μM, with a 3.16× dilution and a total of 9 concentrations. Three replicate wells were set for each drug concentration. The cells in the 96-well plate with the added drugs were incubated at 37° C. and 5% CO2 for another 3 days, and then the CTG assay was performed.
The CTG reagent was thawed, and the cell plate was equilibrated to room temperature for 30 minutes. An equal volume of CTG solution was added to each well, and the plate was shaken on an orbital shaker for 5 minutes to lyse the cells. The cell plate was placed at room temperature for 20 minutes to stabilize the luminescence signal, and then the luminescence value was read.
The data were analyzed using GraphPad Prism 7.0 software. The data were fitted by nonlinear S-curve regression to obtain the dose-response curve, and the IC50 value was calculated accordingly.
Background: In ATP-based viability assays light output follows the ATP content of the culture.
The molecule `C#Cc1c(F)ccc2cc(O)cc(-c3c(F)cc4c(N5CC6CCC(C5)N6)nc(OCC5COCCN(C)C5)nc4c3F)c12` (stereo not drawn) [Example 7] registered an IC50 of 0.781 µM.

In the case of `C#Cc1c(F)ccc2cc(O)cc(-c3c(F)cc4c(N5CC6CCC(C5)N6)nc(OCC56CC5CCN(C)C6)nc4c3F)c12` (atropisomer, axis not shown; (Ra)) [Example 9, (Ra)-4-(4-((1R,5S)-3,8-diazabicyclo[3.2.1]octan-3-yl)-6,8-difluoro-2-((3-methyl-3-azabicyclo[4.1.0]heptan-1-yl)methoxy)quinazolin-7-yl)-5-ethynyl-6-fluoronaphthalen-2-ol·diformate], the half-maximal inhibitory concentration (IC50) came out at 0.347 µM.

`C#Cc1c(F)ccc2cc(O)cc(-c3c(F)cc4c(N5CC6CCC(C5)N6)nc(OCC5(C)CCCN(CCF)C5)nc4c3F)c12` (atropisomer, axis not shown; (Ra)) [Example 4, (Ra)-4-(4-((1R,5S)-3,8-diazabicyclo[3.2.1]octan-3-yl)-6,8-difluoro-2-(1-(2-fluoroethyl)-3-methylpiperidin-3-yl)methoxy)quinazolin-7-yl)-5-ethynyl-6-fluoronaphthalen-2-ol·diformate] showed a concentration for half-maximal inhibition (IC50) of 0.088 µM.

As for `C#Cc1c(F)ccc2cc(O)cc(-c3c(F)cc4c(N5CC6CCC(C5)N6)nc(OCC5(C)CN(C)CCC5OC)nc4c3F)c12` (atropisomer, axis not shown; (Ra)) [Example 5, (Ra)-4-(4-(((1R,5S)-3,8-diazabicyclo[3.2.1]octan-3-yl)-6,8-difluoro-2-(4-methoxy-1,3-dimethylpiperidin-3-yl)methoxy)quinazolin-7-yl)-5-ethynyl-6-fluoronaphthalen-2-ol·diformate], it took 0.175 µM to reach half-maximal inhibition (IC50).

Molecule `C#Cc1c(F)ccc2cc(O)cc(-c3c(F)cc4c(N5CC6CCC(C5)N6)nc(OCC5(C)CCCN(CCOC)C5)nc4c3F)c12` (atropisomer, axis not shown; (Ra)) [Example 3, (Ra)-4-(4-((1R,5S)-3,8-diazabicyclo[3.2.1]octan-3-yl)-6,8-difluoro-2-(1-(2-methoxyethyl)-3-methylpiperidin-3-yl)methoxy)quinazolin-7-yl)-5-ethynyl-6-fluoronaphthalen-2-ol·formate] registered an IC50 of 0.158 µM.

`C#Cc1c(F)ccc2cc(O)cc(-c3c(F)cc4c(N5CC6CCC(C5)N6)nc(OCC5(C)CN(C)CCC5(F)F)nc4c3F)c12` (atropisomer, axis not shown; (Ra)) [Example 6, (Ra)-4-(4-((1R,5S)-3,8-diazabicyclo[3.2.1]octan-3-yl)-2-((4,4-difluoro-1,3-dimethylpiperidin-3-yl)methoxy)-6,8-difluoroquinazolin-7-yl)-5-ethynyl-6-fluoronaphthalen-2-ol] returned a half-inhibitory concentration (IC50) of 0.055 µM.

For the molecule `C#Cc1c(F)ccc2cc(O)cc(-c3c(F)cc4c(N5CC6CCC(C5)N6)nc(OCC5(C)CCCN(C)C5)nc4c3F)c12` (atropisomer, axis not shown; (Ra)) [Example 2, (Ra)-4-(4-((1R,5S)-3,8-diazabicyclo[3.2.1]octan-3-yl)-2-((1,3-dimethylpiperidin-3-yl)methoxy)-6,8-difluoroquinazolin-7-yl)-5-ethynyl-6-fluoronaphthalen-2-ol·dicarboxylate], the IC50 was determined as 0.05 µM.

For the molecule `C#Cc1c(F)ccc2cc(O)cc(-c3c(F)cc4c(N5CC6CCC(C5)N6)nc(OCC5(C)CCCCN(CCOC)C5)nc4c3F)c12` [Example 8, 4-(4-((1R,5S)-3,8-diazabicyclo[3.2.1]octane-3-yl)-6,8-difluoro-2-((1-(2-methoxyethyl)-3-methylazepan-3-yl)methoxy)quinazolin-7-yl)-5-ethynyl-6-fluoronaphthalen-2-ol·triformate], 0.251 µM corresponded to half-maximal inhibition (IC50).

On to `C#Cc1c(F)ccc2cc(O)cc(-c3c(F)cc4c(N5CC6CCC(C5)N6)nc(OCC5(F)CCCN(C)C5)nc4c3F)c12` (atropisomer, axis not shown; (Ra)) [Example 1, (Ra)-4-(4-((1R,5S)-3,8-diazabicyclo[3.2.1]octan-3-yl)-6,8-difluoro-2-(3-fluoro-1-methylpiperidin-3-yl)methoxy)quinazolin-7-yl)-5-ethynyl-6-fluoronaphthalen-2-ol·diformate], for which the IC50 was 0.094 µM.
